Measured values taken from patent publication US20260028338A1, “HETEROBIFUNCTIONAL COMPOUNDS AND METHODS OF TREATING DISEASE” (Halda Therapeutics OpCo, Inc., priority 2023, published 2026).

Assays:
[1] = biological target: T1, biotinylated BCL6 (5-129) (Homo sapiens, UniProt P41182); experiment: SPR assay for binding affinity to BCL6; conditions: Biacore 8K, 25° C., immobilized biotinylated BCL6 (5-129)
T1 construct: biotinylated BCL6 (5-129) was diluted in 10 mM HEPES pH 7.4; biotin (biotinylated)
Protocol: Exemplary compounds were tested for ability to bind to B-cell lymphoma 6 (BCL6) protein.
Binding studies by surface plasmon resonance (SPR) were performed using a Biacore 8K (Cytiva) instrument at 25° C. Briefly, biotinylated BCL6 (5-129) was diluted in 10 mM HEPES pH 7.4, 150 mM NaCl, 0.05% Surfactant P20, 0.5 mM TCEP, 3% DMSO to 1-5 μg/mL and was immobilized on an SA sensor chip (Cytiva, BR100032), resulting in surface densities at 1000-3000 resonance units (RUs). Test compounds were serially diluted five times in the same buffer and were injected to the immobilized surface. Kinetic determination experiments were performed using single-cycle kinetics with 110-120 s contact time, 1000-4000 s dissociation time, 30 μL/min flow rate. Binding data were analyzed by using Biacore insight evaluation software to determine KD values for test compounds.

[2] = biological target: T2, His-tagged BRD4 BD1 (46-168) (Homo sapiens, UniProt O60885); experiment: AlphaLISA competition assay, BRD4 BD1; format: binding; conditions: BRD4-BD1, AlphaLISA competition with biotinylated histone H4K5/8/12/16(Ac) peptide, 10 nM
T2 construct: His-tagged BRD4 BD1 (46-168) and biotinylated histone H4K5/8/12/16(Ac) peptide
Outline: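 His-tagged BRD4 BD1 (46-168) and biotinylated H4K5/8/12/16(Ac) peptide, each 10 nM final, in 20 mM HEPES pH 7.5, 100 mM NaCl, 0.5 mM TCEP, 0.1% BSA, 0.02% CHAPS; compounds incubated 1 h at room temperature. Streptavidin acceptor and Ni-chelate donor beads added; IC50 from AlphaLISA signal.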

[3] = biological target: T3, His-tagged BRD4 BD2 (333-460) (Homo sapiens, UniProt O60885); experiment: AlphaLISA competition assay, BRD4 BD2; format: binding; conditions: BRD4-BD2, AlphaLISA competition with biotinylated histone H4K5/8/12/16(Ac) peptide, 20 nM
T3 construct: The same assay was developed for His-tagged BRD4 BD2 (333-460) and biotinylated histone H4K5/8/12/16(Ac) peptide
Outline: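 His-tagged BRD4 BD2 (333-460) and biotinylated H4K5/8/12/16(Ac) peptide at 20 nM final, in 20 mM HEPES pH 7.5, 100 mM NaCl, 0.5 mM TCEP, 0.1% BSA, 0.02% CHAPS. Compounds incubated 1 h at room temperature, then streptavidin acceptor and nickel chelate donor beads added. IC50 derived from AlphaLISA signal.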

[4] = system: T-Rex 293 cell line SC cells having increased expression of BCL6 protein; experiment: Cellular growth inhibition assay, T-Rex 293 SC cells with doxycycline (CellTiter-Glo); format: cell-based; conditions: T-Rex 293 SC cells with 10 ng/mL doxycycline (increased BCL6 expression), 72 hours, CellTiter-Glo 2.0
[5] = system: T-Rex 293 cell line SC cells lacking increased expression of BCL6 protein; experiment: Cellular growth inhibition assay, T-Rex 293 SC cells without doxycycline (CellTiter-Glo); format: cell-based; conditions: T-Rex 293 SC cells not exposed to doxycycline (no increased BCL6 expression), 72 hours, CellTiter-Glo 2.0
Su-DHL-4 cell line = experiment: Cellular growth inhibition assay, Su-DHL-4 cells (CellTiter-Glo); format: cell-based; conditions: Homo sapiens; Su-DHL-4 cell line (DLBCL), 72 hours, CellTiter-Glo 2.0
Protocol: Exemplary compounds were tested for ability to inhibit the proliferation of Su-DHL-4 and Farage cells. Su-DHL-4 and Farage cells are commercially available diffuse large B cell lymphoma cell lines (DLBCL).
Su-DHL-4 and Farage cells were purchased from American Type Cell Culture (ATCC Cat #CRL-2957/CRL-2630) and then seeded on poly-D-lysine coated, black clear-bottom 384-well plates at 3000/well in 25 μL Roswell Park Memorial Institute media (RPMI-1640) supplemented with 10% w/w Fetal bovine serum (FBS) and 1% w/w Pen-Strep. Pen-Strep is a commercially available mixture of penicillin G and streptomycin, which is used in mammalian cell culture media to prevent bacterial contamination. Roswell Park Memorial Institute media (RPMI-1640) supplemented with 10% w/w fetal bovine serum (FBS), and 1% w/w Pen-Strep is herein referred to as Treatment Medium. Following seeding of cells in the plates, the plates were spun at 300×g for 30 seconds, then equilibrated to room temperature for 30 minutes, and then deposited in a humidified tissue culture incubator maintained at 37° C. with 5% CO2.
At 24 hours after seeding of the cells, dilutions of test compound were prepared in DMSO and dissolved in Treatment Medium, to achieve a final DMSO concentration of 0.5% w/w, thereby providing the Test Compound Solution. A 25 μL aliquot of the Test Compound Solution was added to cells in the well plates. An equal volume of a solution containing DMSO and Treatment Medium was used as a negative control. Following treatment of cells with Test Compound Solution or said equal volume of a solution containing DMSO and Treatment Medium, the plates were spun at 300×g for 30 seconds, and then left in an incubator for 72 hours.
At the end of the treatment duration, cell viability was quantified with CellTiter-Glo 2.0 reagent (Promega Cat #G9243). For this purpose, plates were equilibrated to room temperature for 30 minutes, and then 25 μL of CellTiter-Glo 2.0 reagent was added to cells in the plate wells. Plates were then agitated on a shaker for two minutes at 500 rpm and subsequently incubated at room temperature for 10 minutes. Following incubation, the plates were spun at 3000×g for 30 seconds, then sealed with an optical adhesive cover, and luminescence readings were measured with an EnVision Plate Reader (Perkin Elmer).
Data was normalized using zero luminescence for baseline. A four-parameter non-linear regression curve fit was applied to dose-response data in GraphPad Prism data analysis software to determine the half-maximal growth inhibitory concentration (GI50) for each test compound.

Farage cell line = experiment: Cellular growth inhibition assay, Farage cells (CellTiter-Glo); format: cell-based; conditions: Farage cell line (DLBCL), 72 hours, CellTiter-Glo 2.0
Outline: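 DLBCL lines Su-DHL-4 and Farage were seeded at 3000 cells/well in RPMI-1640 with 10% FBS. Compound dilutions (final DMSO 0.5%) were added 24 h later and incubated 72 h at 37C. Viability was read by CellTiter-Glo 2.0 luminescence, and GI50 came from four-parameter fits.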

Row | Kd [1] [nM] | IC50 [2] [nM] | IC50 [3] [nM] | GI50 (Su-DHL-4 cell line) [nM] | SMILES | GI50 [4] [nM] | GI50 [5] [nM] | GI50 (Farage cell line) [nM]
1 | 1 to 10 | < 5 | < 5 | < 500 | CNC(=O)COc1cc2cc(Nc3nc(N4CCC(CCN5CCN(CCN(C)[C@H]6C[C@H](Oc7ccc(C(C)(C)O)cc7-c7cn(C)c(=O)c8[nH]ccc78)C6)CC5)CC4)ncc3Cl)ccc2n(C)c1=O [Compound I-21] | < 500 | 1500 to 3000 | < 500
2 | 1 to 10 | 5 to 50 | < 5 | < 500 | CNC(=O)COc1cc2cc(Nc3nc(N4CCN(CCN(C)C5CC(Oc6ccc(C(C)(C)O)cc6-c6cn(C)c(=O)c7[nH]ccc67)C5)CC4)ncc3Cl)ccc2n(C)c1=O (stereo not drawn) [Compound I-18, 2-[[6-[[5-chloro-2-[4-[2-[[3-[4-(1-hydroxy-1-methyl-ethyl)-2-(6-methyl-7-oxo-1H-pyrrolo[2,3-c]pyridin-4-yl)phenoxy]cyclobutyl]-methyl-amino]ethyl]piperazin-1-yl]pyrimidin-4-yl]amino]-1-methyl-2-oxo-3-quinolyl]oxy]-N-methyl-acetamide] | < 500 | 500 to 1500 | < 500
3 | 1 to 10 | < 5 | < 5 | < 500 | CNC(=O)COc1cc2cc(Nc3nc(N4CCC(CC5CN(CC6CC(Oc7ccc(C(C)(C)O)cc7-c7cn(C)c(=O)c8[nH]ccc78)C6)C5)CC4)ncc3Cl)ccc2n(C)c1=O (stereo not drawn) [Compound I-22, 2-[[6-[[5-chloro-2-[4-[[1-[[3-[4-(1-hydroxy-1-methyl-ethyl)-2-(6-methyl-7-oxo-1H-pyrrolo[2,3-c]pyridin-4-yl)phenoxy]cyclobutyl]methyl]azetidin-3-yl]methyl]-1-piperidyl]pyrimidin-4-yl]amino]-1-methyl-2-oxo-3-quinolyl]oxy]-N-methyl-acetamide] | < 500 | < 500 | < 500
